In patent US6251944A, “Para-substituted phenylene derivatives” (G. D. Searle & Company, priority 1999, dated 2001):
Structures can show the parent of a compound that is named as a salt.

Experiments:
[1] = target: T1, Human fibrinogen receptor (αIIbβ3) (Homo sapiens, UniProt P05106+P08514); test: Purified IIb/IIIa receptor assay (solid phase receptor assay); details: inhibition of 50% of maximum binding of biotinylated vitronectin; highest concentration tested 1.0×10^-4 M
T1 construct: purified from outdated platelets; from tissue; host or cells: outdated platelets (human)
Method: The activity of the compounds of the present invention was tested in the following assays.
Human fibrinogen receptor (αIIbβ3) was purified from outdated platelets. […] Biotinylated human vitronectin was prepared by coupling NHS-biotin from Pierce Chemical Company (Rockford, Ill.) to purified vitronectin as previously described. […] Anti-biotin antibody was obtained from Calbiochem (La Jolla, Calif.). Linbro microtiter plates were obtained from Flow Labs (McLean, Va.). ADP reagent was obtained from Sigma (St. Louis, Mo.).
Solid Phase Receptor Assays
The purified human fibrinogen receptor (αIIbβ3) was diluted from stock solutions to 1.0 μg/mL in Tris-buffered saline containing 1.0 mM Ca^++, Mg^++, and Mn^++, pH 7.4 (TBS^+++). The diluted receptor was immediately transferred to Linbro microtiter plates at 100 μL/well (100 ng receptor/well). The plates were sealed and incubated overnight at 4° C. to allow the receptor to bind to the wells. All remaining steps were at room temperature. The assay plates were emptied and 200 μL of 1% RIA grade BSA in TBS^+++ (TBS^+++ /BSA) were added to block exposed plastic surfaces. Following a 2 hour incubation, the assay plates were washed with TBS^+++ using a 96 well plate washer. Logarithmic serial dilution of the test compound and controls were made starting at a stock concentration of 2 mM and using 2 nM biotinylated vitronectin in TBS^+++ /BSA as the diluent. This premixing of labeled ligand with test (or control) ligand, and subsequent transfer of 50 μL aliquots to the assay plate was carried out with a CETUS Propette robot; the final concentration of the labeled ligand was 1 nM and the highest concentration of test compound was 1.0×10^-4 M. The competition occurred for two hours after which all wells were washed with a plate washer as before. Affinity purified horseradish peroxidase labeled goat anti-biotin antibody was diluted 1:3000 in TBS^+++ /BSA and 125 μL were added to each well. After 30 minutes, the plates were washed and incubated with […]/H2 O2 substrate in 100 mM/L citrate buffer, pH 5.0. The plate was read with a microtiter plate reader at a wavelength of 450 nm and when the maximum-binding control wells reached an absorbance of about 1.0, the final A450 were recorded for analysis. The data were analyzed using a macro written for use with the EXCEL™ spreadsheet program. The mean, standard deviation, and % CV were determined for duplicate concentrations. The mean A450 values were normalized to the mean of four maximum-binding controls (no competitor added) (B-MAX). The normalized values were subjected to a four parameter curve fit algorithm, [Robard et al., Int.

[2] = target: T2, Human vitronectin receptor(αvβ3) (Homo sapiens, UniProt P05106+P06756); test: Vitronectin adhesion assay (solid phase receptor assay, αvβ3); details: inhibition of 50% of maximum binding of biotinylated vitronectin; highest concentration tested 1.0×10^-4 M; read-out: AvB3 IC50
T2 construct: purified from human placenta; from tissue; host or cells: human placenta
Method: The activity of the compounds of the present invention was tested in the following assays. […] Assay buffer, OPD substrate tablets, and RIA grade BSA were obtained from Sigma (St. Louis, Mo.). Anti-biotin antibody was obtained from Calbiochem (La Jolla, Calif.). Linbro microtiter plates were obtained from Flow Labs (McLean, Va.). ADP reagent was obtained from Sigma (St. Louis, Mo.). […] The purified human vitronectin receptor (αvβ3) was diluted from stock solutions to 1.0 μg/mL in Tris-buffered saline containing 1.0 mM Ca^++, Mg^++, and Mn^++, pH 7.4 (TBS^+++). The diluted receptor was immediately transferred to Linbro microtiter plates at 100 μL/well (100 ng receptor/well). The plates were sealed and incubated overnight at 4° C. to allow the receptor to bind to the wells. All remaining steps were at room temperature. The assay plates were emptied and 200 μL of 1% RIA grade BSA in TBS^+++ (TBS^+++ /BSA) were added to block exposed plastic surfaces. Following a 2 hour incubation, the assay plates were washed with TBS^+++ using a 96 well plate washer. […] The competition occurred for two hours after which all wells were washed with a plate washer as before. […] After 30 minutes, the plates were washed and incubated with OPD/H2 O2 substrate in 100 mM/L Citrate buffer, pH 5.0. […] The data were analyzed using a macro written for use with the EXCEL™ spreadsheet program. The mean, standard deviation, and % CV were determined for duplicate concentrations. The mean A450 values were normalized to the mean of four maximum-binding controls (no competitor added)(B-MAX). The normalized values were subjected to a four parameter curve fit algorithm [Rodbard et al., Int. […] Ser.

T2 sequence (P06756 31-889 limits assumed): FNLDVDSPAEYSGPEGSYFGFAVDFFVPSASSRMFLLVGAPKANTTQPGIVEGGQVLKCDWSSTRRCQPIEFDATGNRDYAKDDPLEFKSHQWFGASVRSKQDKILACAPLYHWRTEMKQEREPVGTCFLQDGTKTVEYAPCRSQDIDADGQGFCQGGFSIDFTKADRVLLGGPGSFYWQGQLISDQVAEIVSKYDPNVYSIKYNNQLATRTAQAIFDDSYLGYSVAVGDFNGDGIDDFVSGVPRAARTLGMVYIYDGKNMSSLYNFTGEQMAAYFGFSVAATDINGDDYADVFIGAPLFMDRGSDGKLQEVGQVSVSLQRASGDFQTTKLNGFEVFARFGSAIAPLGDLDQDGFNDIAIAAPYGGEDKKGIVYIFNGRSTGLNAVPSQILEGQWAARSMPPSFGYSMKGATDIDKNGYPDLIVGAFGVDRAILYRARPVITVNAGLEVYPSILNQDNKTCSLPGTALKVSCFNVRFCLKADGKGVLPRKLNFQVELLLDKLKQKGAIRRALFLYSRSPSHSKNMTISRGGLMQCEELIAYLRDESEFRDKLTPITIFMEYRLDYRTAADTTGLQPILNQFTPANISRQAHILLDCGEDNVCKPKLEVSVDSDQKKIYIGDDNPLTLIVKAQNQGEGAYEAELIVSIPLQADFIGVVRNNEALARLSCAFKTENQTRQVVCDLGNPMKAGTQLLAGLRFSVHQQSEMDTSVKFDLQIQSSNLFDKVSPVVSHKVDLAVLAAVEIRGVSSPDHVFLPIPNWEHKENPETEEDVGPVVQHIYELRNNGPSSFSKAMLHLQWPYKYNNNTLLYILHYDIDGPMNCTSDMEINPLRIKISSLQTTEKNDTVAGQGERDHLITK
T2 sequence (P06756 891-1048 limits assumed): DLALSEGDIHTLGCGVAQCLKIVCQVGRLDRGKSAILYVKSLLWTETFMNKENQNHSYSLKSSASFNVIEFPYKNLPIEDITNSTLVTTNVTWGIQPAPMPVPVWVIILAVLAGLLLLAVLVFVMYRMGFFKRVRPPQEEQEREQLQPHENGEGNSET
T2 sequence (P05106 27-788): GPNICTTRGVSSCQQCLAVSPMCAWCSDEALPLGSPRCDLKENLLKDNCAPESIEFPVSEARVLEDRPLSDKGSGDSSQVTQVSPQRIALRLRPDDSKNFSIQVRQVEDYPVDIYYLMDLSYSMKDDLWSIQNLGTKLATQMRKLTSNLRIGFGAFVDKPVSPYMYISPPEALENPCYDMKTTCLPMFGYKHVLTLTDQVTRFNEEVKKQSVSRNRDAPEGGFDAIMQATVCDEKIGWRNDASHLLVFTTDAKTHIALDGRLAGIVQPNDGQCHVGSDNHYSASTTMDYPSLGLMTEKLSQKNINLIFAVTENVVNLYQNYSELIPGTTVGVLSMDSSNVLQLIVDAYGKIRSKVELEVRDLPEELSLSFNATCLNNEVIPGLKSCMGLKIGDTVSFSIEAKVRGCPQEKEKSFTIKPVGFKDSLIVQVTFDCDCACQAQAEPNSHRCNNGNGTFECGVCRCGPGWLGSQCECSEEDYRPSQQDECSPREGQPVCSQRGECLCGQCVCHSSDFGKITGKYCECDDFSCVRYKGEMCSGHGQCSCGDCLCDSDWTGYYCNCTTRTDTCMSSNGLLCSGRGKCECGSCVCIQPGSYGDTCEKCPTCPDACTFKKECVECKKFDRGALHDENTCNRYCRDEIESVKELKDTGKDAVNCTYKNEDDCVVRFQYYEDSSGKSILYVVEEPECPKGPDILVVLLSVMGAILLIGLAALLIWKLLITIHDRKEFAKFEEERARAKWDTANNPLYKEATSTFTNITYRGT
T1 sequence (P08514 32-887 limits assumed): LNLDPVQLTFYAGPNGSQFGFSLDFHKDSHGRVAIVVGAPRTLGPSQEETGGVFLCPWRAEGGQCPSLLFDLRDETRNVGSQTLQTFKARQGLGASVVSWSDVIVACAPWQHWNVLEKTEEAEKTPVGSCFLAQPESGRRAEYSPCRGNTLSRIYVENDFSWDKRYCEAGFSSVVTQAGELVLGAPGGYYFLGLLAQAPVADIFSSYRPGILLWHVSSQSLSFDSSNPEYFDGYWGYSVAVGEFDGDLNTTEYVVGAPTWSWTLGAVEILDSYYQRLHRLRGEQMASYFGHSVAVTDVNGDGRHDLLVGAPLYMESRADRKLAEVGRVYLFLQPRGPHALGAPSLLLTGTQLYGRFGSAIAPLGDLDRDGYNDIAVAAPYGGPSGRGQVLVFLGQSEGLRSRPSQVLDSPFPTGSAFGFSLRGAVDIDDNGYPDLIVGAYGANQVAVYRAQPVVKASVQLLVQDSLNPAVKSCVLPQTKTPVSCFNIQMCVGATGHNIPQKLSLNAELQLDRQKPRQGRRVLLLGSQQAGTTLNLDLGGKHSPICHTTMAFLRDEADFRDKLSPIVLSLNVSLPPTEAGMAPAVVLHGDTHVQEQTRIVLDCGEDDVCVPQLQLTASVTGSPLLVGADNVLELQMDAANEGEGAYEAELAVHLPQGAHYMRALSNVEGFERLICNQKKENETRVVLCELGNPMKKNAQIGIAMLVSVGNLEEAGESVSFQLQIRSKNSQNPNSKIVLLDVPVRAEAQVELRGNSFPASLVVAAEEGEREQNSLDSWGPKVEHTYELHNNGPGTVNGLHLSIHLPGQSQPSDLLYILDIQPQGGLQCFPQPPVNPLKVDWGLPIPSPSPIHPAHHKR
T1 sequence (P08514 891-1039 limits assumed): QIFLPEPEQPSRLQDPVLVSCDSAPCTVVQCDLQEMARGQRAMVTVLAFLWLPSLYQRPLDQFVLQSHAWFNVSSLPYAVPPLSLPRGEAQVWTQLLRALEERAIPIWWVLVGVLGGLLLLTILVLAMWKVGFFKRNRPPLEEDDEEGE
T1 sequence (P05106 27-788): as the sequence (P05106 27-788) above

Row | SMILES | IC50 [1] [nM] | IC50 [2] [nM]
1 | CC(C)OC(=O)NC(Cc1ccc(NC(=O)c2ccc(Cl)c(NC(=N)N)c2)cc1)C(=O)O (centres unmarked) [Example 87, 4[[[3-[(aminoiminomethyl)amino]-4-chlorophenyl]carbonyl]amino]-N-[(1-methylethoxy)carbonyl]phenylalanine] | 85.3 | 0.44
2 | COc1cc(NC(=O)c2cccc(NC(=N)N)c2)ccc1OCC(=O)O [Example 118, [4-[[[3-[(aminoiminomethyl)amino]phenyl]carbonyl]amino]-2-methoxyphenoxy]acetic Acid, trifluoroacetate Salt] | 54 | 3
3 | N=C(N)Nc1cccc(C(=O)Nc2ccc(S(=O)(=O)CC(=O)O)cc2)c1 [Example 83, [[4-[[[3-[(aminoiminomethyl)amino]phenyl]carbonyl]amino]phenyl]sulfonyl]acetic Acid] | 474 | 1900
4 | CCOC(=O)NC(Cc1ccc(NC(=O)c2cccc(NC(=N)N)c2)cc1)C(=O)OCC (centres unmarked) [Example 38, 4-[[[3-[(aminoiminomethyl)amino]phenyl]-carbonyl]amino]-N-(ethoxycarbonyl)phenylalanine Ethyl Ester, trifluoroacetate Salt] | 3360 | 106
5 | CCC(Cc1ccc(NC(=O)c2cccc(NC(=N)N)c2)cc1)C(=O)O (stereo not drawn) [Example 129, 4-[[[3-[(aminoiminomethyl)amino]phenyl]carbonyl]amino]-α-ethylbenzenepropanoic Acid, trifluoroacetate Salt] | 5260 | 265
6 | CC(C)(C)CC(=O)NC(Cc1ccc(NC(=O)c2cc(NC(=N)N)cc(C(F)(F)F)c2)cc1)C(=O)O (centres unmarked) [Example 110, 4-[[[3-[(aminoiminomethyl)amino]-5-(trifluoromethyl)phenyl]carbonyl]amino]-N-(3,3-dimethyl-1-oxobutyl)phenylalanine, trifluoroacetate Salt] | 326 | 4
7 | N=C(N)Nc1cccc(C(=O)Nc2ccc(CC(NS(=O)(=O)/C=C/c3ccccc3)C(=O)O)cc2)c1 (centres unmarked) [Example 123, 4-[[[3-[(aminoiminomethyl)amino]phenyl]carbonyl]amino]-N-[(2-phenylethenyl)sulfonyl]phenylalanine, trifluoroacetate Salt] | 1.5 | 0.5
8 | COc1cc(NC(=O)c2cccc(NC(=N)N)c2)ccc1CC(NC(=O)OC(C)C)C(=O)O (centres unmarked) [Example 113, 4-[[[3-[(aminoiminomethyl)amino]phenyl]carbonyl]amino]-2-methoxy-N-[(1-methylethoxy)carbonyl]phenylalanine, trifluoroacetate salt, monohydrate] | 253 | 1
9 | N=C(N)Nc1cccc(C(=O)Nc2ccc(CCC(=O)O)c(CCC(=O)O)c2)c1 [Example 100, 4-[[[3-[(aminoiminomethyl)amino]phenyl]carbonyl]amino]benzene-1,2-dipropanoic Acid, trifluoroacetate Salt] | 44 | 6
10 | CC(C)COC(=O)NC(Cc1ccc(NC(=O)c2cc(NC(=N)N)cc(C(F)(F)F)c2)cc1)C(=O)O (centres unmarked) [Example 2, 4-[[[3-[(aminoiminomethyl)amino]-5-(trifluoromethyl)phenyl]carbonyl]amino]-N-[(2-methylpropoxy)carbonyl]phenylalanine, trifluoroacetate Salt] | 8.08 | 0.18
11 | CCOC(=O)CSc1ccc(NC(=O)c2cccc(NC(=N)N)c2)cc1 [Example 90, ethyl[[4-[[(3-[(aminoiminomethyl)amino]phenyl]carbonyl]amino]phenyl]thio]acetic Acid, trifluoroacetate] | 34500 | 23700
12 | CC(C)OC(=O)NC(Cc1ccc(NC(=O)c2cccc(C(=O)NC(=N)N)c2)cc1)C(=O)O (centres unmarked) [Example 128, 4-[[[3-[[(aminoiminomethyl)amino]carbonyl]phenyl]carbonyl]amino]-N-[(1-methylethoxy)carbonyl]phenylalanine, trifluoroacetate Salt] | 20 | 216
13 | N=C(N)Nc1cccc(C(=O)Nc2ccc(C(CC(=O)O)C(=O)O)cc2)c1 (centres unmarked) [Example 69, [4-[[[3-[(aminoiminomethyl)amino]-phenyl]carbonyl]amino]phenyl]butanedioicAcid, trifluoroacetate Salt] | 37 | 94
14 | N=C(N)Nc1cccc(C(=O)Nc2ccc(OCC(=O)O)cc2)c1 [Example 81, [4-[[[3-[(aminoiminomethyl)amino]phenyl]-carbonyl]amino]phenoxy]acetic Acid, trifluoroacetate Salt] | 129 | 19.1
15 | CC(C)(C)CC(=O)NC(Cc1ccc(NC(=O)c2cccc(NC(=N)N)c2)cc1)C(=O)O (centres unmarked) [Example 109, 4-[[[3-[(aminoiminomethyl)amino]phenyl]carbonyl]amino]-N-(3,3-dimethyl-1-oxobutyl)phenylalanine, trifluoroacetate Salt] | 111 | 5
16 | CC(=O)NC(Cc1ccc(NC(=O)c2cccc(NC(=N)N)c2)cc1)C(=O)O (centres unmarked) [Example 35, N-acetyl-4-[[[3-[(aminoiminomethyl)amino]-phenyl]carbonyl]amino]phenylalanine, trifluoroacetate Salt] | 148 | 2.69
17 | N=C(N)Nc1cccc(C(=O)Nc2ccc(C(CC(=O)O)C(=O)NCC(=O)O)cc2)c1 (stereo not drawn) [Example 73, 4-[[[3-[(aminoiminomethyl)amino]phenyl]-carbonyl]amino]-beta-[[(carboxymethyl)amino]carbonyl]-benzenepropanoic Acid, trifluoroacetate Salt] | 40 | 141
18 | CC(CC(=O)OC(C)(C)C)c1ccc(NC(=O)c2cccc(NC(=N)N)c2)cc1 (stereo not drawn) [Example 30, 1,1-dimethylethyl 4-[[[3-[(aminoiminomethyl)amino]phenyl]carbonyl]amino]-β-methylbenzenepropanoate, trifluoroacetate Salt] | 3260 | 6370
19 | N=C(N)c1cccc(C(=O)Nc2ccc(CCC(=O)O)cc2)c1 [Example 20, 4-[[[3-(Aminoiminomethyl)phenyl]carbonyl]-amino]benzenepropanoic Acid] | 39900 | > 100000
20 | N=C(N)Nc1cccc(C(=O)Nc2ccc(CCC(=O)O)cc2O)c1 [Example 75, 4-[[[3-[(aminoiminomethyl)amino]phenyl]-carbonyl]amino]-3-hydroxybenzenepropanoic Acid, trifluoroacetate Salt] | 330 | 14.5
21 | CCOC(=O)C(Oc1ccc(NC(=O)c2cccc(NC(=N)N)c2)cc1)c1ccccc1 (stereo not drawn) [Example 86C, ethyl α-[4-[[[3-[(aminoiminomethyl)amino]phenyl]carbonyl]amino]phenoxy]benzeneacetate, trifluoroacetate Salt] | > 100000 | 56800
22 | COC(=O)[C@H](Cc1ccc(NC(=O)c2cccc(NC(=N)N)c2)cc1)NC(=O)OC(C)(C)C [Example 45, 4-[[[3-[(aminoiminomethyl)amino]phenyl]-carbonyl]amino]-N-[(1,1-dimethylethoxy)carbonyl]-L-phenylalanine, methyl Ester, trifluoroacetate Salt] | 603 | 39.4
